The subject of this experiment is Plasmodium berghei. The experiment is described as follows: Luciferase/luciferin-expressing antifolate-resistant parasites were used to infect a culture of HepG2 cells that were pre-incubated with compounds. Infected hepatocytes emit light due to the luciferase reaction. Assay results are presented as the percent inhibition of light emission compared to control. […]. In kind it is functional. The conditions noted are these: sporozoite; for IC90: read-out: LUCIFERASE INFECTION ASSAY - IC90.

Bounds are passed on as bounds.

By IC50 is commonly meant the concentration that inhibits the measured activity by half. One may read the IC90 as the concentration needed for an effect of 90%.

Regarding `COc1cc(OC)cc(-c2cn3c(-c4ccc5c(c4)OCO5)cnc3cn2)c1`, the IC90 was more than 8.79 µM. Also, under “HEPG2TOX_HILL_SLOPE 7.71, HEPG2TOX_R_SQUARED 0.876, PBLUC_HILL_SLOPE 4.45, PBLUC_R_SQUARED 0.518, read-out: LUCIFERASE INFECTION ASSAY - IC50”, the IC50 was found to be 5.54 µM.
Take `Nc1nccnc1C(=O)NNC(=O)c1cccc(C(F)(F)F)c1`: the IC90 turned out to be 7.02 µM. Also, the half-inhibitory concentration (IC50) (HEPG2TOX_HILL_SLOPE 7.79, HEPG2TOX_R_SQUARED 0.494, PBLUC_HILL_SLOPE 4.8, PBLUC_R_SQUARED 0.215, read-out: LUCIFERASE INFECTION ASSAY - IC50) was 4.44 µM.
Take `O=C(Nc1nnc(C(F)(F)F)[nH]1)c1cc(-c2ccc(Br)cc2)nc2ccccc12`: the IC90 is more than 10 µM. For the same molecule, where the note is “HEPG2TOX_HILL_SLOPE 7.84, HEPG2TOX_R_SQUARED 0.569, PBLUC_HILL_SLOPE 1.54, PBLUC_R_SQUARED 0.197, read-out: LUCIFERASE INFECTION ASSAY - IC50”, the IC50 was determined as 9.57 µM.
For the molecule `N#C/C(=C1/SC=C(c2ccc(-c3ccccc3)cc2)N1c1ccccc1)c1nnc2n1CCCCC2`, the IC90 amounted to 3.6 µM. Further, under “HEPG2TOX_HILL_SLOPE 7.81, HEPG2TOX_R_SQUARED 0.359, PBLUC_HILL_SLOPE 26.3, PBLUC_R_SQUARED 0.88, read-out: LUCIFERASE INFECTION ASSAY - IC50”, the IC50 was 3.31 µM.
For the molecule `COc1cc2c(cc1OC)C(c1ccccc1)N(CC(=O)Nc1c(C)cc(C)cc1Cl)CC2` (stereo not drawn), the IC90 amounted to 9.2 µM. For the same molecule, the IC50 (HEPG2TOX_HILL_SLOPE 7.81, HEPG2TOX_R_SQUARED 0.408, PBLUC_HILL_SLOPE 9.86, PBLUC_R_SQUARED 0.196, read-out: LUCIFERASE INFECTION ASSAY - IC50) came out at 7.36 µM.
For the molecule `O=[N+]([O-])c1cccc(-c2nnc3c4ccccc4nc(C(F)(F)F)n23)c1`, the IC90 was more than 9.19 µM. For the same molecule, under “HEPG2TOX_HILL_SLOPE 7.76, HEPG2TOX_R_SQUARED 0.363, PBLUC_HILL_SLOPE 1.91, PBLUC_R_SQUARED 0.781, read-out: LUCIFERASE INFECTION ASSAY - IC50”, the IC50 was found to be 4.42 µM.
Take `Cc1cc(C(=O)CSc2nnc(C3CC3)o2)c(C)n1-c1ccc2c(c1)CCC2`: the IC90 is more than 10 µM. Besides, under “HEPG2TOX_HILL_SLOPE 7.74, HEPG2TOX_R_SQUARED 0.677, read-out: LUCIFERASE INFECTION ASSAY - IC50”, the IC50 was more than 10 µM.
With `O=c1c2ccccc2ncn1CCOCCOc1ccccc1-c1ccccc1`, the IC90 is more than 8.54 µM. Further, for the setting “HEPG2TOX_HILL_SLOPE 7.75, HEPG2TOX_R_SQUARED 0.123, read-out: LUCIFERASE INFECTION ASSAY - IC50”, the IC50 was more than 8.54 µM.
For the molecule `COCc1cccc(C(=O)Nc2ccc3c(c2)OC(F)(F)O3)c1`, the 90% effect concentration (IC90) was more than 10 µM. For the same molecule, the IC50 (HEPG2TOX_HILL_SLOPE 7.81, HEPG2TOX_R_SQUARED 0.0219, PBLUC_HILL_SLOPE 15.2, PBLUC_R_SQUARED 0.505, read-out: LUCIFERASE INFECTION ASSAY - IC50) came to 9.35 µM.
With `CCCCc1ccc(CC(=O)NCc2ccc(Cn3cccn3)cc2)cc1`, the IC90 came to 8.98 µM. Moreover, where the note is “HEPG2TOX_HILL_SLOPE 7.71, 2.15, HEPG2TOX_R_SQUARED 0.735, 0.901, PBLUC_HILL_SLOPE 15.3, 3.44, PBLUC_R_SQUARED 0.0878, 0.809, read-out: LUCIFERASE INFECTION ASSAY - IC50”, the IC50 was 7.36 µM.
On to `CC(C)c1cccc(-c2ccc3nnc(-c4ccc5c(c4)NC(=O)CO5)n3c2)c1`, for which the IC90 is more than 10 µM. Further, the concentration for half-maximal inhibition (IC50) (HEPG2TOX_HILL_SLOPE 7.77, HEPG2TOX_R_SQUARED 0.643, read-out: LUCIFERASE INFECTION ASSAY - IC50) was more than 10 µM.
For the molecule `CCc1ccc(C(=O)Nc2nc3ccc(C)cn3c2C(=O)NC(C)CC)cc1` (stereo not drawn), the IC90 is 3.2 µM. Moreover, the IC50 (HEPG2TOX_HILL_SLOPE 7.71, HEPG2TOX_R_SQUARED 0.568, PBLUC_HILL_SLOPE 11.7, PBLUC_R_SQUARED 0.544, read-out: LUCIFERASE INFECTION ASSAY - IC50) is 2.65 µM.
Regarding `CC(=O)Nc1cccc(Oc2ccc(C(=O)Nc3ccc4ccccc4c3)cc2[N+](=O)[O-])c1`, the IC90 worked out at 1.68 µM. In addition, the IC50 (HEPG2TOX_HILL_SLOPE 7.7, HEPG2TOX_R_SQUARED 0.774, PBLUC_HILL_SLOPE 1.37, PBLUC_R_SQUARED 0.884, read-out: LUCIFERASE INFECTION ASSAY - IC50) was 0.337 µM.
Consider `Cc1sc2nc3c4ccccc4c(NCc4ccccc4CN4CCOCC4)nn3c(=O)c2c1C`, for which the IC90 is more than 10 µM. The IC50 (HEPG2TOX_HILL_SLOPE 7.8, HEPG2TOX_R_SQUARED 0.205, PBLUC_HILL_SLOPE 3, PBLUC_R_SQUARED 0.458, read-out: LUCIFERASE INFECTION ASSAY - IC50) was determined as 5.95 µM.
In the case of `CC(Sc1nc2ccccc2c(=O)n1C)C(=O)Nc1cc([N+](=O)[O-])ccc1Cl` (stereo not drawn), the IC90 is more than 10 µM. Besides, the IC50 (HEPG2TOX_HILL_SLOPE 7.72, HEPG2TOX_R_SQUARED 0.92, read-out: LUCIFERASE INFECTION ASSAY - IC50) was more than 10 µM.
As for `O=C1C=C(NCCSCc2ccccc2Cl)CC(c2ccc3c(c2)OCO3)C1` (stereo not drawn), the concentration for an effect of 90% (IC90) is more than 7.93 µM. Also, the IC50 (HEPG2TOX_HILL_SLOPE 7.83, HEPG2TOX_R_SQUARED 0.476, PBLUC_HILL_SLOPE 2.36, PBLUC_R_SQUARED 0.149, read-out: LUCIFERASE INFECTION ASSAY - IC50) amounted to 6.56 µM.
In the case of `C(=N\N1CCN(c2ccccn2)CC1)/C1=C(Sc2nc3ccccc3s2)CCCC1`, the IC90 was more than 10 µM. In addition, the IC50 (HEPG2TOX_HILL_SLOPE 7.72, HEPG2TOX_R_SQUARED 0.819, PBLUC_HILL_SLOPE 7.09, PBLUC_R_SQUARED 0.503, read-out: LUCIFERASE INFECTION ASSAY - IC50) was 7.43 µM.
With `O=c1cc(C(F)(F)F)[nH]n1-c1ccc(OC(F)(F)F)cc1`, the 90% effect concentration (IC90) is more than 10.6 µM. The IC50 (HEPG2TOX_HILL_SLOPE 7.72, HEPG2TOX_R_SQUARED 0.792, PBLUC_HILL_SLOPE 12.3, PBLUC_R_SQUARED 0.186, read-out: LUCIFERASE INFECTION ASSAY - IC50) stood at 9.78 µM.
On to `CC(C)c1ccc(-n2c(SCc3c(F)cccc3Cl)nnc2-c2ccc(C(C)(C)C)cc2)cc1`, for which the concentration for an effect of 90% (IC90) turned out to be 5.28 µM. Further, under “HEPG2TOX_HILL_SLOPE 7.75, HEPG2TOX_R_SQUARED 0.388, PBLUC_HILL_SLOPE 5.31, PBLUC_R_SQUARED 0.644, read-out: LUCIFERASE INFECTION ASSAY - IC50”, the IC50 turned out to be 3.49 µM.
In the case of `CCOC(=O)c1sc(NC(=O)c2cc(-c3ccc(F)cc3)nc3ccccc23)cc1C`, the IC90 amounted to 9.91 µM. Also, the IC50 (HEPG2TOX_HILL_SLOPE 7.73, HEPG2TOX_R_SQUARED 0.935, PBLUC_HILL_SLOPE 14.3, PBLUC_R_SQUARED 0.729, read-out: LUCIFERASE INFECTION ASSAY - IC50) was determined as 8.51 µM.
Turning to `CCc1c(C(=O)Nc2nc(C)cs2)cnn1-c1cccc(Cl)c1`, the IC90 came out at 1.14 µM. Besides, the IC50 (HEPG2TOX_HILL_SLOPE 7.81, HEPG2TOX_R_SQUARED 0.827, PBLUC_HILL_SLOPE 1.59, PBLUC_R_SQUARED 0.7, read-out: LUCIFERASE INFECTION ASSAY - IC50) came out at 0.286 µM.
Take `CSc1ccccc1NC(=O)CN1CCN(C(c2ccccc2)c2ccccc2)CC1`: the IC90 was determined as 6.36 µM. Further, the IC50 (HEPG2TOX_HILL_SLOPE 7.79, HEPG2TOX_R_SQUARED 0.752, PBLUC_HILL_SLOPE 3.88, PBLUC_R_SQUARED 0.663, read-out: LUCIFERASE INFECTION ASSAY - IC50) worked out at 3.61 µM.
Consider `Nc1ncc(-c2cccc(O)c2)cc1-c1cccc(C(F)(F)F)c1`, for which the IC90 stood at 3.76 µM. The IC50 (HEPG2TOX_HILL_SLOPE 7.78, HEPG2TOX_R_SQUARED 0.72, PBLUC_HILL_SLOPE 13.3, PBLUC_R_SQUARED 0.696, read-out: LUCIFERASE INFECTION ASSAY - IC50) is 3.18 µM.
With `CCn1c2ccccc2c2cc(NC(=O)COC(=O)C3CSC4(c5ccc(F)cc5)CCC(=O)N34)ccc21` (stereo not drawn), the IC90 is more than 10 µM. Besides, the IC50 (HEPG2TOX_HILL_SLOPE 7.81, HEPG2TOX_R_SQUARED 0.779, read-out: LUCIFERASE INFECTION ASSAY - IC50) is more than 10 µM.
For `Cc1ccc(C)c(-c2nn(CC(=O)N3c4ccccc4CC3C)c(=O)c3ccccc23)c1` (stereo not drawn), the IC90 is more than 10 µM. In addition, the IC50 (HEPG2TOX_HILL_SLOPE 7.77, HEPG2TOX_R_SQUARED 0.247, read-out: LUCIFERASE INFECTION ASSAY - IC50) is more than 10 µM.
With `C=CCNC(=O)CSc1nccc(-c2sc3sc(Br)c(C)c3c2C)n1`, the IC90 was more than 7.26 µM. Moreover, the IC50 (HEPG2TOX_HILL_SLOPE 7.83, HEPG2TOX_R_SQUARED 0.735, PBLUC_HILL_SLOPE 0.44, PBLUC_R_SQUARED 0.419, read-out: LUCIFERASE INFECTION ASSAY - IC50) was found to be 2.88 µM.
In the case of `CCCN(CCC)Cc1c(O)ccc2c1O/C(=C\c1ccc(OCC)cc1)C2=O`, the IC90 was more than 8.34 µM. Further, the IC50 (HEPG2TOX_HILL_SLOPE 7.71, HEPG2TOX_R_SQUARED 0.351, PBLUC_HILL_SLOPE 26.6, PBLUC_R_SQUARED 0.241, read-out: LUCIFERASE INFECTION ASSAY - IC50) came to 7.9 µM.
On to `CCNC(=O)C1(C)CCCN1Cc1ccc(-c2ccccc2)cc1` (stereo not drawn), for which the IC90 is more than 10.2 µM. The IC50 (HEPG2TOX_HILL_SLOPE 7.75, HEPG2TOX_R_SQUARED 0.0398, PBLUC_HILL_SLOPE 14.9, PBLUC_R_SQUARED 0.606, read-out: LUCIFERASE INFECTION ASSAY - IC50) turned out to be 9.52 µM.
In the case of `CCn1c(-c2cc(C(=O)c3ccccc3O)c[nH]2)nc2ccccc21`, the IC90 was more than 10 µM. The IC50 (HEPG2TOX_HILL_SLOPE 7.78, HEPG2TOX_R_SQUARED 0.356, PBLUC_HILL_SLOPE 1.9, PBLUC_R_SQUARED 0.373, read-out: LUCIFERASE INFECTION ASSAY - IC50) came to 6.07 µM.
